Reference: patent US10202339B2, “Therapeutic compounds and compositions” (AGIOS PHARMACEUTICALS, INC., priority 2012, dated 2019)
pIC50: −log10 of the molar value.

Molecular target: IDH1 R132H (Homo sapiens (Human), UniProt O75874, R132H)
Assay: In vitro assay for IDH1m (R132H) inhibitors, NADPH depletion with resazurin/resorufin detection
Type: biochemical
Details: IDH1 R132H enzyme, 50 minutes at room temperature; read-out: IDH R132H IC50
Protocol: Assays were conducted in a volume of 76 μl assay buffer (150 mM NaCl, 10 mM MgCl2, 20 mM Tris pH 7.5, 0.03% bovine serum albumin) as follows in a standard 384-well plate: To 25 ul of substrate mix (8 uM NADPH, 2 mM aKG), 1 μl of test compound was added in DMSO. The plate was centrifuged briefly, and then 25 μl of enzyme mix was added (0.2 μg/ml IDH1 R132H) followed by a brief centrifugation and shake at 100 RPM. The reaction was incubated for 50 minutes at room temperature, then 25 μl of detection mix (30 μM resazurin, […]) was added and the mixture further incubated for 5 minutes at room temperature. The conversion of resazurin to resorufin was detected by fluorescent spectroscopy at Ex544 Em590 c/o 590.
Representative compounds of formula (I) set forth in Tables 1 and 2 were tested in this assay and the results are set forth below in Table 4.

Chain of IDH1 R132H (O75874 whole entry R132H): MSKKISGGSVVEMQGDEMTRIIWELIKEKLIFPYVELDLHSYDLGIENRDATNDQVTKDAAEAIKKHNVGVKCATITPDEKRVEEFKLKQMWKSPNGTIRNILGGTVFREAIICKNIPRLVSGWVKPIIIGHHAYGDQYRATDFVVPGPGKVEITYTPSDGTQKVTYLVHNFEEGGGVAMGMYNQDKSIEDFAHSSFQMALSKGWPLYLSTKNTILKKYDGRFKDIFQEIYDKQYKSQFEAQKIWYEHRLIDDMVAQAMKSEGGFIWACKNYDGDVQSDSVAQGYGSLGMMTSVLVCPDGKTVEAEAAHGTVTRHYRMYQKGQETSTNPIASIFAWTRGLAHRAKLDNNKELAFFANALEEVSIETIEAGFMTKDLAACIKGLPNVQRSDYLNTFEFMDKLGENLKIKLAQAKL

| Compound | pIC50 |
| --- | --- |
| Cc1ccc(NC(=O)Nc2ccccc2OC(F)(F)F)cc1S(=O)(=O)Nc1ccc(Cl)cc1 [Compound 224] | 5.00 to 6.00 |
| Cc1ccc(NC(=O)Nc2ccc(C(F)(F)F)cc2)cc1S(=O)(=O)Nc1ccc(OS(C)(=O)=O)cc1 [Compound 327] | 5.00 to 6.00 |
| Cc1ccc(NC(=O)Nc2ccccc2Cc2ccccc2)cc1S(=O)(=O)Nc1ccc(Cl)cc1 [Compound 285] | 5.00 to 6.00 |
| Cc1ccc(NC(=O)Nc2cccc(Oc3ccccc3)c2)cc1S(=O)(=O)Nc1ccccc1 [Compound 212] | 5.00 to 6.00 |
| Cc1ccc(NC(=O)Nc2ccc(Br)cc2Cl)cc1S(=O)(=O)Nc1ccc(Cl)cc1 [Compound 227] | 5.00 to 6.00 |
| Cc1ccc(NC(=O)N[C@@H](C)c2cccc3ccccc23)cc1S(=O)(=O)Nc1ccc(Cl)cc1 [Compound 288] | 5.00 to 6.00 |
| CCc1ccc(NC(=O)Nc2ccc(C)c(S(=O)(=O)Nc3ccc(Cl)cc3)c2)cc1 [Compound 252] | 5.00 to 6.00 |
| Cc1ccc(NC(=O)Nc2cccc(C(F)(F)F)c2)cc1S(=O)(=O)Nc1ccc(Cl)cc1 [Compound 221, N-(4-chlorophenyl)-2-methyl-5-(3-(3(trifluoromethyl)phenyl)ureido)benzenesulfonamide] | 5.00 to 6.00 |
| Cc1ccc(NC(=O)Nc2cccc(C(F)(F)F)c2)cc1S(=O)(=O)Nc1ccccc1F [Compound 295] | 5.00 to 6.00 |
| Cc1cccc(NS(=O)(=O)c2cc(NC(=O)Nc3cccc(C(F)(F)F)c3)ccc2C)c1 [Compound 302] | 5.00 to 6.00 |
| CSc1cccc(NC(=O)Nc2ccc(C)c(S(=O)(=O)Nc3ccc(Cl)cc3)c2)c1 [Compound 273] | 5.00 to 6.00 |
| Cc1ccc(NC(=O)Nc2c(Cl)cc(F)cc2Br)cc1S(=O)(=O)Nc1ccc(Cl)cc1 [Compound 247] | 5.00 to 6.00 |
| Cc1ccc(NC(=O)Nc2cccc(C(F)(F)F)c2)cc1S(=O)(=O)Nc1ccccc1 [Compound 206, 2-methyl-N-phenyl-5-(3-(3-(trifluoromethyl)phenyl)ureido)benzenesulfonamide] | 5.00 to 6.00 |
| Cc1ccc(NC(=O)Nc2cc(C(F)(F)F)ccc2F)cc1S(=O)(=O)Nc1ccc(Cl)cc1 [Compound 233] | 5.00 to 6.00 |
| Cc1ccc(NC(=O)Nc2ccc(C)c(S(=O)(=O)Nc3ccc(Cl)cc3)c2)cc1S(=O)(=O)Nc1ccc(Cl)cc1 [Compound 336] | 5.00 to 6.00 |
| CCc1cccc(NC(=O)Nc2ccc(C)c(S(=O)(=O)Nc3ccc(Cl)cc3)c2)c1 [Compound 251] | 5.00 to 6.00 |
| Cc1cc(Br)ccc1NC(=O)Nc1ccc(C)c(S(=O)(=O)Nc2ccc(Cl)cc2)c1 [Compound 238] | 5.00 to 6.00 |
| Cc1ccc(NC(=O)Nc2cccc(C(F)(F)F)c2)cc1S(=O)(=O)N1CCNCC1 [Compound 323] | 5.00 to 6.00 |
| Cc1ccc(NC(=O)Nc2cccc(C(F)(F)F)c2)cc1S(=O)(=O)Nc1ccc(F)cc1 [Compound 297] | 5.00 to 6.00 |
| CCc1cccc(CC)c1NC(=O)Nc1ccc(C)c(S(=O)(=O)Nc2ccc(Cl)cc2)c1 [Compound 261] | 5.00 to 6.00 |
| Cc1ccc(NC(=O)Nc2ccc(C)c(S(=O)(=O)Nc3ccc(Cl)cc3)c2)cc1C [Compound 259] | 5.00 to 6.00 |
| Cc1cc(F)ccc1NS(=O)(=O)c1cc(NC(=O)Nc2cccc(C(F)(F)F)c2)ccc1C [Compound 298] | 5.00 to 6.00 |
| Cc1ccc(NC(=O)Nc2ccc(C(F)(F)F)cc2)cc1S(=O)(=O)Nc1ccc(S(C)(=O)=O)cc1 [Compound 331] | 5.00 to 6.00 |
| Cc1ccc(NC(=O)Nc2cccc(C(F)(F)F)c2)cc1S(=O)(=O)Nc1ccccc1Cl [Compound 293] | 5.00 to 6.00 |
| CCOC(=O)COc1ccc(NS(=O)(=O)c2cc(NC(=O)Nc3ccc(C(F)(F)F)cc3)ccc2C)cc1 [Compound 325] | 5.00 to 6.00 |
| Cc1ccc(NC(=O)Nc2ccccc2Cl)cc1S(=O)(=O)Nc1ccc(Cl)cc1 [Compound 214] | 5.00 to 6.00 |
| CCOC(=O)CNc1ccc(NS(=O)(=O)c2cc(NC(=O)Nc3ccc(C(F)(F)F)cc3)ccc2C)cc1 [Compound 330] | 5.00 to 6.00 |
| Cc1cc(NC(=O)Nc2ccc(C)c(S(=O)(=O)Nc3ccc(Cl)cc3)c2)ccc1Br [Compound 237] | 5.00 to 6.00 |

| Compound | pIC50 |
| --- | --- |
| Cc1ccc(NC(=O)Nc2cccc(C(F)(F)F)c2)cc1S(=O)(=O)Nc1cccc(CCc2ccccc2)c1 [Compound 314] | 5.00 to 6.00 |
| COc1ccccc1NC(=O)Nc1ccc(C)c(S(=O)(=O)Nc2ccc(Cl)cc2)c1 [Compound 265] | 5.00 to 6.00 |
| Cc1ccc(NC(=O)Nc2ccc(Br)cc2OC(F)(F)F)cc1S(=O)(=O)Nc1ccc(Cl)cc1 [Compound 232] | 5.00 to 6.00 |
| CCc1ccccc1NC(=O)Nc1ccc(C)c(S(=O)(=O)Nc2ccc(Cl)cc2)c1 [Compound 250] | 5.00 to 6.00 |
| Cc1ccc(NC(=O)Nc2ccc(Cl)c([N+](=O)[O-])c2)cc1S(=O)(=O)Nc1ccc(Cl)cc1 [Compound 242] | 5.00 to 6.00 |
| Cc1ccc(NC(=O)N[C@H](C)c2ccccc2)cc1S(=O)(=O)Nc1ccc(Cl)cc1 [Compound 284] | 5.00 to 6.00 |
| Cc1ccc(NC(=O)Nc2cccc(C(F)(F)F)c2)cc1S(=O)(=O)Nc1ccc(S(C)(=O)=O)cc1 [Compound 313] | 5.00 to 6.00 |
| COc1ccc(Cl)cc1NC(=O)Nc1ccc(C)c(S(=O)(=O)Nc2ccc(Cl)cc2)c1 [Compound 270] | 5.00 to 6.00 |
| CC(=O)Nc1ccc(NS(=O)(=O)c2cc(NC(=O)Nc3cccc(C(F)(F)F)c3)ccc2C)cc1 [Compound 309] | 5.00 to 6.00 |
| CCCOc1ccc(NS(=O)(=O)c2cc(NC(=O)Nc3cccc(C(F)(F)F)c3)ccc2C)cc1 [Compound 305] | 5.00 to 6.00 |
| O=C(Nc1cccc(C(F)(F)F)c1)Nc1cc(S(=O)(=O)Nc2ccccc2)ccc1-c1ccsc1 [Compound 351, N-phenyl-4-(thiophen-3-yl)-3-(3-(3-(trifluoromethyl)phenyl)ureido)benzenesulfonamide] | 5.00 to 6.00 |
| Cc1ccc(NC(=O)Nc2cccc(C)c2C)cc1S(=O)(=O)Nc1ccc(Cl)cc1 [Compound 258] | 5.00 to 6.00 |
| Cc1ccc(NC(=O)Nc2cccc([N+](=O)[O-])c2)cc1S(=O)(=O)Nc1ccc(Cl)cc1 [Compound 275] | 5.00 to 6.00 |
| Cc1ccc(NC(=O)Nc2cccc(S(=O)(=O)Nc3ccccc3)c2)cc1S(=O)(=O)Nc1ccc(Cl)cc1 [Compound 334] | 5.00 to 6.00 |
| CCc1ccc(NC(=O)Nc2cccc(C(F)(F)F)c2)cc1S(=O)(=O)Nc1ccc(Cl)cc1 [Compound 333] | 5.00 to 6.00 |
| COc1ccc(NC(=O)Nc2ccc(C)c(S(=O)(=O)Nc3ccc(Cl)cc3)c2)cc1 [Compound 267] | 5.00 to 6.00 |
| C#Cc1cccc(NC(=O)Nc2ccc(C)c(S(=O)(=O)Nc3ccccc3)c2)c1 [Compound 211] | 5.00 to 6.00 |
| COc1cc(NC(=O)Nc2ccc(C)c(S(=O)(=O)Nc3ccc(Cl)cc3)c2)cc(OC)c1 [Compound 269] | 5.00 to 6.00 |
| Cc1ccc(NC(=O)Nc2cccc(C(F)(F)F)c2)cc1S(=O)(=O)Nc1ccc2c(c1)ncn2C [Compound 320, 2-methyl-N-(1-methyl-1H-benzo[d]imidazol-5-yl)-5-(3-(3-(trifluoromethyl)phenyl)ureido)benzene sulfonamide] | 5.00 to 6.00 |
| N-(1H-indol-7-yl)-2-methyl-5-(3-(3-(trifluoromethyl)phenyl)ureido)benzenesulfonamide [Compound 317] | 5.00 to 6.00 |
| CCCCc1ccc(NC(=O)Nc2ccc(C)c(S(=O)(=O)Nc3ccc(Cl)cc3)c2)cc1 [Compound 253] | 5.00 to 6.00 |
| Cc1ccc(NC(=O)NCc2ccccc2F)cc1S(=O)(=O)Nc1ccc(Cl)cc1 [Compound 278] | 5.00 to 6.00 |
| Cc1ccc(NC(=O)Nc2cccc(C(F)(F)F)c2)cc1S(=O)(=O)Nc1cccc2ncccc12 [Compound 321] | 5.00 to 6.00 |
| Cc1ccc(NC(=O)Nc2ccc(F)c(Cl)c2)cc1S(=O)(=O)Nc1ccccc1 [Compound 209] | 5.00 to 6.00 |
| Cc1ccc(NC(=O)Nc2ccccc2Br)cc1S(=O)(=O)Nc1ccc(Cl)cc1 [Compound 216] | 5.00 to 6.00 |
| Cc1cccc(CNC(=O)Nc2ccc(C)c(S(=O)(=O)Nc3ccc(Cl)cc3)c2)c1 [Compound 282] | 5.00 to 6.00 |
| Cc1ccc(NC(=O)Nc2cccc([N+](=O)[O-])c2C)cc1S(=O)(=O)Nc1ccc(Cl)cc1 [Compound 264] | 5.00 to 6.00 |
